Here are results for eleven compounds from ChEMBL document CHEMBL6087389, “Hydrazone-Functionalized trans-A2B-Corroles: Effective Synergy in Photodynamic Therapy of Lung Cancer” (J Med Chem, 2024).

The subject of data set [1] is NCI-H1299. In words: Dark toxicity against human NCI-H1299 cells assessed as reduction in metabolic activity at <1 uM incubated for 4 hrs by MTT assay. Format: cell-based. The settings on record: nci-h1299, 4 h. For orientation: Tetrazolium dyes change colour on reduction, which living cells bring about.
Data set [2] concerns NCI-H1299. In words: Dark toxicity against human NCI-H1299 cells assessed as reduction in metabolic activity at 10 uM incubated for 4 hrs by MTT assay. Format: cell-based. More on the design: scale not given: the % may be the effect or the level left. The settings on record: nci-h1299, 4 h.
Data set [3] is described as follows: Phototoxicity against human A549 cells assessed as reduction in cell viability preincubated for 24 hrs followed by 7.5 to 10 mW/cm^-2 red light irradiation and measured after 24 hrs by MTT assay. Format: functional, cell-based. The settings on record: A549, light or radiation study.
The nature of data set [4]: Fluorescence property of the compound in toluene assessed as fluorescence quantum yield by photoluminescence quantum yield spectrometer. Format: physicochemical.
Data set [5] deals with A549. In words: Dark toxicity against human A549 cells assessed as reduction in metabolic activity at 10 uM incubated for 4 hrs by MTT assay. Format: cell-based. Also noted: scale not given: the % may be the effect or the level left. The settings on record: a549, 4 h.
Data set [6] is described as follows: Induction of singlet oxygen generation in THF assessed as singlet oxygen quantum yield by comparative photoluminescence method. Format: functional.
The subject of data set [7] is A549. Put plainly: Dark toxicity against human A549 cells assessed as reduction in metabolic activity at <1 uM incubated for 4 hrs by MTT assay. Format: cell-based. The settings on record: a549, 4 h.
A short description of data set [8]: Phototoxicity against human NCI-H1299 cells assessed as reduction in cell viability preincubated for 24 hrs followed by 7.5 to 10 mW/cm^-2 red light irradiation and measured after 24 hrs by MTT assay. The settings on record: NCI-H1299, light or radiation study. Format: functional, cell-based.
A short description of data set [9]: Fluorescence property of the compound in DMSO assessed as fluorescence quantum yield by photoluminescence quantum yield spectrometer. Format: physicochemical.
Data set [10] is described as follows: Fluorescence property of the compound in THF assessed as fluorescence quantum yield by photoluminescence quantum yield spectrometer. Format: physicochemical.
Data set [11] deals with A549. Put plainly: Photocytotoxicity in human A549 cells assessed as cell viability at 10 uM measured after 24 hrs by MTT assay relative to control. Format: functional. The settings on record: read-out: Activity.
In data set [12] the test system is A549. In words: Dark toxicity against human A549 cells assessed as reduction in metabolic activity at 5 uM incubated for 4 hrs by MTT assay relative to control. Format: cell-based. More on the design: scale not given: the % may be the effect or the level left. The settings on record: a549, 4 h.

With `C/C(=N/NC(=O)OC(C)(C)C)c1c2nc(c(-c3ccc([N+](=O)[O-])cc3)c3ccc([nH]3)c3ccc([nH]3)c(-c3ccc([N+](=O)[O-])cc3)c3ccc1[nH]3)C=C2`, the Activity result in data set [1] is “Non-toxic”; in data set [2] it was 53.41%; in data set [4], 0.195; in [5], 49.14%; in [6], 0.22; in data set [7] it was “Non-toxic”. Moreover, the results for the IC50 in data set [3] and in data set [8] were 748 nM and 310 nM, respectively.

As to `CC(C)(C)OC(=O)N/N=C(\c1ccccc1)c1c2nc(c(-c3ccc([N+](=O)[O-])cc3)c3ccc([nH]3)c3ccc([nH]3)c(-c3ccc([N+](=O)[O-])cc3)c3ccc1[nH]3)C=C2`, the Activity result in [1] is “Non-toxic”; in data set [2] it was 51.15%; in data set [4] it was 0.197; in data set [5], 48.37%; in [6] it was 0.31; in [7] it was “Non-toxic”. The figures for the IC50 in data set [3] and in data set [8] were 2110 nM and 2360 nM, respectively.

As for `C/C(=N/NC(=O)OC(C)(C)C)c1c2nc(c(-c3ccc(O)cc3)c3ccc([nH]3)c3ccc([nH]3)c(-c3ccc(O)cc3)c3ccc1[nH]3)C=C2`, the Activity entry in data set [1] was “Non-toxic”; in [9], 0.249; in [6] it was 0.18; in [10], 0.114; in [7] it was “Non-toxic”. In addition, the values for the IC50 in data set [3] and in data set [8] were 413 nM and 145 nM, respectively.

Turning to `C1=Cc2nc1c(-c1ccccc1)c1ccc([nH]1)c(-c1ccccc1)c1ccc([nH]1)c1ccc([nH]1)c2-c1ccccc1`, the viability at 10 µM in data set [11] came out at 93%. Also, the figures for the Activity in data set [9], in data set [6] and in [10] were 0.22, 0.22 and 0.12, respectively.

Consider `CC(C)(C)OC(=O)N/N=C(/c1ccccc1)c1c2nc(c(-c3ccc(O)cc3)c3ccc([nH]3)c3ccc([nH]3)c(-c3ccc(O)cc3)c3ccc1[nH]3)C=C2`, for which the Activity result in data set [1] was “Non-toxic”; in data set [9] it was 0.234; in data set [6], 0.21; in data set [10], 0.118; in data set [7] it was “Non-toxic”. Moreover, the IC50 was 89.3 nM in [3] and 56.1 nM in [8].

Turning to `CC(C)(C)OC(=O)N/N=C(\c1ccccc1)c1c2nc(c(-c3ccccc3)c3ccc([nH]3)c3ccc([nH]3)c(-c3ccccc3)c3ccc1[nH]3)C=C2`, the Activity result was “Non-toxic” in data set [1]; “Non-toxic” in data set [2]; 0.298 in [9]; 0.46 in data set [6]; 0.159 in [10]; “Non-toxic” in data set [7]. Moreover, the IC50 in data set [3] amounted to 948 nM; in data set [8] it was 538 nM.

On to `C/C(=N\Nc1ccc([N+](=O)[O-])cc1[N+](=O)[O-])c1c2nc(c(-c3ccccc3)c3ccc([nH]3)c3ccc([nH]3)c(-c3ccccc3)c3ccc1[nH]3)C=C2`, for which the results for the Activity entry in data set [1], in data set [4] and in [7] were “Non-toxic”, 0.002 and “Non-toxic”, respectively.

With `C/C(=N\NC(=O)c1ccccc1)c1c2nc(c(-c3ccccc3)c3ccc([nH]3)c3ccc([nH]3)c(-c3ccccc3)c3ccc1[nH]3)C=C2`, the Activity result in [1] was “Non-toxic”; in data set [2], “Non-toxic”; in [9], 0.211; in data set [5], “Non-toxic”; in data set [6], 0.11; in data set [10], 0.111. Moreover, the Activity entry in data set [7] is “Non-toxic”. The values for the IC50 in data set [3] and in data set [8] were 803 nM and 164 nM, respectively.

On to `C/C(=N/NC(=O)OC(C)(C)C)c1c2nc(c(-c3cccc(O)c3)c3ccc([nH]3)c3ccc([nH]3)c(-c3cccc(O)c3)c3ccc1[nH]3)C=C2`, for which the Activity result in data set [1] was “Non-toxic”; in data set [9] it was 0.283; in [6], 0.26; in [10], 0.133; in [7], “Non-toxic”. Further, the IC50 in data set [3] is 140 nM; in [8], 67.5 nM.

Turning to `Oc1cccc(-c2c3nc(c(-c4cccc(O)c4)c4ccc([nH]4)c(-c4cccc(O)c4)c4nc(c(-c5cccc(O)c5)c5ccc2[nH]5)CC4)C=C3)c1` [TEMOPORFIN], the IC50 in data set [3] turned out to be 84.1 nM.

As for `C/C(=N\NS(=O)(=O)c1ccc(C)cc1)c1c2nc(c(-c3ccc(O)cc3)c3ccc([nH]3)c3ccc([nH]3)c(-c3ccc(O)cc3)c3ccc1[nH]3)C=C2`, the Activity is 17.95% in data set [12]; “Non-toxic” in data set [1]; 0.212 in data set [9]; 13.93% in data set [5]; 0.19 in data set [6]; 0.073 in [10]. Besides, the Activity result in data set [7] is listed as “Non-toxic”. The IC50 in [3] turned out to be 892 nM; in [8] it was 277 nM.

Broadly, the IC50 is the point on the concentration scale where inhibition reaches its midpoint.
